Measurements taken from patent publication US20180353483A1, “PHARMACEUTICAL COMPOSITIONS AND METHODS FOR INDOLEAMINE, 2, 3-DIOXYGENASE INHIBITION AND INDICATIONS THEREFOR” (Incyte Corporation, priority 2015, published 2018).
Like-named read-outs stand apart in the source and are kept apart here.

Assay: Pharmacokinetics of Compound 1 in combination with MK-3475 in subjects with various cancers
Assay type: in vivo, human
Experimental: The subjects were not limited to a specific cancers and study include subjects with various cancers. […] One treatment cycle consisted of 21 days. […] Additional subjects were enrolled in a cohort to achieve the minimum of 3 evaluable subjects if dropouts or dose interruptions or reductions occur that result in a subject being non-evaluable for DLTs. […] An additional safety cohort was opened at 100 mg BID in parallel to 300 mg BID being tested. This may also be limited to subjects with melanoma, NSCLC, or specific cancer types from among those included in Phase 1. The RP2D was selected from the evaluated safety expansions.
If a dose was missed by more than 4 hours, that dose was skipped and was resumed at the scheduled time.
Pharmacokinetic samples were obtained at the visits of Cycle 1 Day 1, Cycle 1 Day 8 and Cycle 2 Day 1. […] The exact date and time of the PK blood draws were recorded in the eCRF along with the date and time of the last dose of study drug and details of the last meal preceding the blood draw.
The planned PK time points were used for preliminary PK analyses.

[1] = by dose, 25 mg, first dose, geometric mean
[2] = by dose, 25 mg, first dose, mean ± SD
[3] = by dose, 50 mg BID, steady state C1D8, mean ± SD
[4] = by dose, 100 mg BID, steady state C1D8, mean ± SD
[5] = by dose, 100 mg, first dose, geometric mean

## NS(=O)(=O)NCCNc1nonc1C(=NO)Nc1ccc(F)c(Br)c1 [Compound 1, 4-({2-[(aminosulfonyl)amino]ethyl}amino)-N-(3-bromo-4-fluorophenyl)-N′-hydroxy-1,2,5-oxadiazole-3-carboximidamide]
Diagnosis TNBC, steady state C1D8, median
  tmax: 2.00 h
Dose Reduction By C4D1 subjects (Table 13), steady state C1D8, mean ± SD
  CL/F: 28.4 ± 11.1 L/h
Dose Reduction By C4D1 subjects (Table 13), steady state C1D8, median
  tmax: 2.00 h
By dose, 25 mg BID, steady state C1D8, mean ± SD
  CL/F: 46.2 ± 8.91 L/h
By dose, 25 mg BID, steady state C1D8, median
  tmax: 1.00 h
[1]
  AUC(0-t): (0.650) μM * h
  Cmax: 199 nM
[2]
  AUC(0-t): 0.711 ± 0.349 µM·h
  Cmax: 231 ± 151 nM
By dose, 25 mg, first dose, median
  tmax: 2.00 h
By dose, 50 mg BID, steady state C1D8, geometric mean
  Cmax: 452 nM
[3]
  CL/F: 68.8 ± 29.0 L/h
  Cmax: 502 ± 237 nM
By dose, 50 mg BID, steady state C1D8, median
  tmax: 2.00 h
By dose, 50 mg, first dose, geometric mean
  Cmax: 500 nM
By dose, 50 mg, first dose, mean ± SD
  Cmax: 537 ± 217 nM
By dose, 50 mg, first dose, median
  tmax: 2.00 h
By dose, 100 mg BID, steady state C1D8, geometric mean
  Cmax: 806 nM
[4]
  CL/F: 69.1 ± 28.9 L/h
  Cmax: 917 ± 424 nM
By dose, 100 mg BID, steady state C1D8, median
  tmax: 2.00 h
[5]
  AUC(0-t): (2.32) μM * h
  Cmax: 719 nM
By dose, 100 mg, first dose, mean ± SD
  Cmax: 803 ± 378 nM
By dose, 100 mg, first dose, median
  tmax: 2.00 h
By dose, 300 mg BID, steady state C1D8, geometric mean
  Cmax: 2510 nM
By dose, 300 mg BID, steady state C1D8, mean ± SD
  CL/F: 64.9 ± 22.7 L/h
By dose, 300 mg BID, steady state C1D8, median
  tmax: 2.00 h
By dose, 300 mg, first dose, geometric mean
  Cmax: 2020 nM
By dose, 300 mg, first dose, mean ± SD
  Cmax: 2290 ± 1230 nM
By dose, 300 mg, first dose, median
  tmax: 2.00 h
human, plasma, oral, 25 mg, Cohort 1, 25 mg BID, steady state C1D8, geometric mean
  Cmax: 276 nM
human, plasma, oral, 25 mg, Cohort 1, 25 mg BID, steady state C1D8, geometric mean, read-out: AUC0-12 h (converted)
  AUC(0-t): 1.25 µM·h
human, plasma, oral, 25 mg, Cohort 1, 25 mg BID, steady state C1D8, mean ± SD
  Cmax: 307 ± 150 nM
human, plasma, oral, 25 mg, Cohort 1, 25 mg BID, steady state C1D8, mean ± SD, read-out: AUC0-12 h (converted)
  AUC(0-t): 1.27 ± 0.23 µM·h
human, plasma, oral, 25 mg, by dose, 25 mg BID, steady state C1D8, geometric mean
  Cmax: 276 nM
human, plasma, oral, 25 mg, by dose, 25 mg BID, steady state C1D8, geometric mean, read-out: AUC0-12 h (converted)
  AUC(0-t): 1.25 µM·h
human, plasma, oral, 25 mg, by dose, 25 mg BID, steady state C1D8, mean ± SD
  Cmax: 307 ± 150 nM
human, plasma, oral, 25 mg, by dose, 25 mg BID, steady state C1D8, mean ± SD, read-out: AUC0-12 h (converted)
  AUC(0-t): 1.27 ± 0.23 µM·h
human, plasma, oral, 50 mg, Cohort 2, 50 mg BID, steady state C1D8, geometric mean
  Cmax: 550 nM
human, plasma, oral, 50 mg, Cohort 2, 50 mg BID, steady state C1D8, geometric mean, read-out: AUC0-12 h (converted)
  AUC(0-t): 2.34 µM·h
human, plasma, oral, 50 mg, Cohort 2, 50 mg BID, steady state C1D8, mean ± SD
  Cmax: 603 ± 227 nM
human, plasma, oral, 50 mg, Cohort 2, 50 mg BID, steady state C1D8, mean ± SD, read-out: AUC0-12 h (converted)
  AUC(0-t): 2.53 ± 1.02 µM·h
human, plasma, oral, 50 mg, Cohort 2, 50 mg, first dose, geometric mean, read-out: AUC0-t
  AUC(0-t): 1.53 µM·h
human, plasma, oral, 50 mg, Cohort 2, 50 mg, first dose, mean ± SD
  Cmax: 574 ± 216 nM
human, plasma, oral, 50 mg, Cohort 2, 50 mg, first dose, mean ± SD, read-out: AUC0-t
  AUC(0-t): 1.6 ± 0.507 µM·h
human, plasma, oral, 50 mg, Cohort 4 (MEL), 50 mg BID, steady state C1D8, geometric mean
  Cmax: 403 nM
human, plasma, oral, 50 mg, Cohort 4 (MEL), 50 mg BID, steady state C1D8, geometric mean, read-out: AUC0-12 h (converted)
  AUC(0-t): 1.58 µM·h
human, plasma, oral, 50 mg, Cohort 4 (MEL), 50 mg BID, steady state C1D8, mean ± SD
  Cmax: 442 ± 232 nM
human, plasma, oral, 50 mg, Cohort 4 (MEL), 50 mg BID, steady state C1D8, mean ± SD, read-out: AUC0-12 h (converted)
  AUC(0-t): 1.77 ± 1.12 µM·h
human, plasma, oral, 50 mg, Cohort 4 (MEL), 50 mg BID, steady state C1D8, median, read-out: tmax
  tmax: 1.5 h
human, plasma, oral, 50 mg, Cohort 4 (MEL), 50 mg, first dose, geometric mean, read-out: AUC0-t
  AUC(0-t): 1.2 µM·h
human, plasma, oral, 50 mg, Cohort 4 (MEL), 50 mg, first dose, mean ± SD, read-out: AUC0-t
  AUC(0-t): 1.32 ± 0.698 µM·h
human, plasma, oral, 50 mg, Cohort 4 (MEL), first dose, geometric mean
  Cmax: 474 nM
human, plasma, oral, 50 mg, Cohort 4 (MEL), first dose, mean ± SD
  Cmax: 512 ± 224 nM
human, plasma, oral, 50 mg, by dose, 50 mg BID, steady state C1D8, geometric mean, read-out: AUC0-12 h (converted)
  AUC(0-t): 1.83 µM·h
human, plasma, oral, 50 mg, by dose, 50 mg BID, steady state C1D8, mean ± SD, read-out: AUC0-12 h (converted)
  AUC(0-t): 2.05 ± 1.12 µM·h
human, plasma, oral, 50 mg, by dose, 50 mg, first dose, geometric mean, read-out: AUC0-t
  AUC(0-t): 1.33 µM·h
human, plasma, oral, 50 mg, by dose, 50 mg, first dose, mean ± SD, read-out: AUC0-t
  AUC(0-t): 1.43 ± 0.63 µM·h
human, plasma, oral, 50 mg, subjects with dose reduction before C4D1, 50 mg BID, C1D8, geometric mean
  Cmax: 519 nM
human, plasma, oral, 50 mg, subjects with dose reduction before C4D1, 50 mg BID, C1D8, mean ± SD
  Cmax: 557 ± 260 nM
human, plasma, oral, 100 mg BID, All diagnoses, steady state C1D8, geometric mean
  Cmax: 1010 nM
